Patent US20250000979A1, “TRIPLET-TRIPLET ENERGY TRANSFER WITH LIGHT EXCITATION AT LONG WAVELENGTHS AND METHODS THEREOF” (priority 2023, published 2025)
Marks after values point to notes of the source that are not given here.

How the values were obtained:
[1] = tested on: HeLa tumor; assay: In vivo light-triggered prodrug activation and tumor inhibition; design: species or system BALB/c nude mice; details: 8 mg/kg intravenous Day 1 and 6, no light
Procedure: Encouraged by the anti-proliferation effect and tumor retention capability, Os/BC NPs were considered as an applicable agent for light-triggered drug release and photoactivated cancer chemotherapy. The HeLa tumor-bearing mice were randomly divided into […] (n=5) when the tumors reached at around […]. PBS, free Cb (8 mg/kg), Os NPs (at the equivalent concentration of Os in Os/BC NPs), BC NPs (at the equivalent concentration of Cb) and Os/BC NPs (at the equivalent concentration of Cb) were intravenously injected on Day 1 (FIG. 6C). At 24 h post injection, NIR-light irradiation (690 nm, 300 mW/cm^2, 10 min) was applied topically onto the tumor area (FIG. 6D). The formulation injection and light irradiation were repeated on Day 6 and 7, respectively. For evaluating therapeutic efficacy, tumor volume was recorded within the treatment period. […] However, no statistical difference was found between Group 3 and Groups 1, 2, 4 and 5. […] Hematoxylin and eosin (H&E) staining assay was conducted to investigate the pathology of the tumors and organs. […]
The anti-tumor efficacy of the formulations in presence or absence of light was investigated with HeLa tumor-bearing mice. […] Tumor sizes and body weights were measured during the period, and the tumor volume was calculated as V=½×width^2×length. […]

[2] = N2-saturated solution without quencher; cited from earlier work
[3] = in toluene, calculated by TD-DFT, referred to previous studies; cited from earlier work
[4] = Encapsulation efficiency and loading capacity of Os/BC NP (HPLC); format: physicochemical; details: component of Os/BC NP
Procedure: Flash nanoprecipitation method was used to fabricate the photosensitizer/prodrug-loading nanoparticles. […] Different formulations (Os NPs, BC NPs and Os/BC NPs) were then prepared with optimized ratios of components. Briefly, 224 μL of the mixed stock solution was added into 1.8 mL N2-saturated water under vortexing. The resulted solutions were added to dialysis bags (MW: 3400 Da) and dialyzed against 4 L of water for 24 h. The water out of dialysis bag was renewed every 8 h. The resulted solution of NPs was collected and filtrated with 220 nm filter. Finally, the NPs solutions were concentrated by ultrafiltration (Mw=100 kDa, 2000×g, 10 min) and stored at 4° C. until use. The concentrations of each component were measured by using HPLC. Loading capacity and encapsulation efficiency were calculated as follow: […]

[5] = Photophysical properties (UV-Vis absorption, emission, energy levels); format: physicochemical; details: for λabs, max (S0-S1): S0-S1 (1MLCT) absorption; for λabs, max (S0-S1) / λabs, max (S0-T1): dichloromethane with 2% acetone, 10 μM; for λabs, max (S0-T1): S0-T1 (3MLCT, S-T) absorption; for E (absorption coefficient, S0-T1 band): at 688 nm (S0-T1); for Energy level T1 state: calculated from maximum T1 (phosphorescence) emission wavelength
Source text: The absorption peak at about 492 nm is identified as the singlet metal-to-ligand charge transfer (^1MLCT) absorption, also termed as singlet-singlet (S-S) absorption. […] The two twistable bromophenyl groups of the bromophenyl terpyridine ligands extend the S-T absorption from 650 nm to 750 nm with increased absorption coefficient.
CombiFlash Rf chromatography instrument was purchased from Teledyne ISCO (Lincoln, USA) for chemical purification. Light sources used in this study were purchased from Yuanming Laser (Ningbo, China) and Mightex (CA, USA). The purity verification and photolysis study were conducted with a high-performance liquid chromatography (HPLC) system (Agilent technologies, 1260), attached with C-18 columns which were obtained from Agilent (Santa Clara, California, United States). Nuclear magnetic resonance (NMR) spectroscopy was collected by Bruker AVANCE III HD 500 spectrometer (MA, US). Fluorescence, phosphorescence and UV-vis spectra were collected by a SpectraMax M4 microplate reader (Molecular Devices, CA, US). The particle size and surface charge were recorded by a dynamic light scattering (DLS) device, Zetasizer Nano-ZS90 (Malvern instruments, UK). Transmission electron microscope (TEM) imaging was conducted on a Hitachi HT7700 TEM (Tokyo, Japan). ACEA NovoCyte Quanteon flow cytometer (ACEA Biosciences, CA, USA) was used for flow cytometry. In vivo and ex vivo imaging of the mice were conducted with an In Vivo Imaging System (PerkinElmer, USA). Devices for animal study like including balance and vernier caliper were kindly provided by The Centre for Comparative Medicine Research (CCMR), The University of Hong Kong.

[6] = Stern-Volmer phosphorescence quenching assay (TTET from Os(bptpy)2^2+ to BODIPY-Cb); format: physicochemical
Procedure: The energy transfer quenching rate constants (kTTET) was measured by Stern-Volmer experiment. […] Oxygen was removed by nitrogen bubbling (50 mL/min) for 10 min.
Energy transfer quenching rate constants of this TTET process, quantified as kTTET, can be calculated based on the below equation (2)
(τ0: phosphorescence lifetime of Os(bptpy)2^2+ in N2-saturated solution without quencher.)
For Os(bptpy)2^2+, τ0=0.20 μs.

Encapsulation Efficiency [4] | Loading Capacity [4] | λabs, max (S0-S1) [5] | λabs, max (S0-S1) ([5]; listed as Os(bptpy)2•2PF6) | λabs, max (S0-T1) [5] | λabs, max (S0-T1) ([5]; listed as Os(bptpy)2•2PF6) | E (absorption coefficient, S0-S1 band) ([5]; at 491 nm (S0-S1)) | E (absorption coefficient, S0-T1 band) [5] | E (absorption coefficient, S0-T1 band) ([5]; listed as Os(bptpy)2•2PF6) | Energy level S1 state ([5]; calculated by maximum S1 emission wavelength, E = 1240/λem, S1) | Energy level T1 state ([5]; E = 1240/λem) | Energy level T1 state ([5]; E = 1240/λem, listed as Os(bptpy)2•2PF6) | λem, max ([5]; λex = 491 nm) | λem, max ([5]; λex = 688 nm) | Quenching constant kq ([6]; 10 μM Os(bptpy)2^2+, quencher BODIPY-Cb 0-7.5 μM, N2) | Compound | tumor volume (anti-tumor effect) [1] | τ0 phosphorescence lifetime [2] | T1 lifetime [3] | TTET rate constant (kTTET) ([6]; energy transfer from T1 of Os(bptpy)2^2+ to T1 of BODIPY-Cb)
– | – | – | – | – | – | – | – | – | – | – | – | – | – | – | O=C(O)CCCc1ccc(N(CCCl)CCCl)cc1 [chlorambucil] | did not exhibit detectable anti-tumor effect | – | – | –
29.43% | 0.22% | about 492 nm | 491 (S0-S1) nm | 688 nm | 688 (S0-T1) nm | 73500 M⁻¹ cm⁻¹ | 26600 M⁻¹ cm⁻¹ | 26600 M⁻¹ cm⁻¹ | 2.56^h eV | 1.69 eV | 1.69^i eV | 498^c nm | 734^d nm | (5.491±0.282)×10^4 M^−1 | Os (II) bromophenyl terpyridine complex [Os(bptpy)2^2+] | – | 0.20 μs | 0.20^f μs | (2.72±0.14)×10^11 M^−1 s^−1
